Consider eight compounds from PMC6222509, “Dibasic Derivatives of Phenylcarbamic Acid against Mycobacterial Strains: Old Drugs and New Tricks?” (Molecules : A Journal of Synthetic Chemistry and Natural …, 2018).

Converted amounts (≈) assume the structure as drawn. Like-named read-outs stand apart in the source and are kept apart here.

Data set [1] can be described thus: electronic properties, UV/Vis spectrophotometry of methanolic solutions. Type of data set: physicochemical. The settings on record: methanolic solution c = 8.0 × 10^−5 M; for log ε2 (Ch-T): charge-transfer maximum λ2 (Ch-T) = 236–238 nm; for log ε1: λ1 = 208–210 nm; for log ε3: λ3 = 278–280 nm. The text has this: Electronic properties of the molecules 1a–p (Table 1) were characterized by logarithms of molar absorption coefficients (log ε) of their methanolic solutions (c = 8.0 × 10^−5 M) investigated in the UV/Vis region of an electromagnetic spectrum.
Positions of these absorption bands in the spectrum were typical for derivatives of (substituted) phenylcarbamic acid and the bands were assigned as first local excitation (λ3), charge-transfer (λ2 (Ch-T)) and second local excitation (λ1) absorption maxima, respectively. The λ1 and λ2 (Ch-T) maxima of 2-alkoxy substituted compounds 1a–d and 1i–l were slightly lower compared to those of their 3-alkoxy substituted positional isomers 1e–h and 1m–p (Table 1), respectively.
The UV/Vis spectra of methanolic solutions of analyzed compounds 1a–p (c = 8.0 × 10^−5 M) were observed on the 8452A Diode Array spectrophotometer HP-8452A (Hewlett-Packard, Palo Alto, CA, USA) at 21 °C. Methanol for UV-spectroscopy (Merck, Darmstadt, Germany) was used for preparation of these solutions. Results of the UV/Vis analyses were collected and stored digitally using the ChemStation controller software (Agilent Technologies, Waldbronn, Germany). The HP-8452A apparatus measured a complete range of compounds’ spectrum from 190 nm to 820 nm.
The log ε values for presently observed absorption maxima were calculated following the Lambert-Beer’s law, which was discussed in [35], for example, and expressed by Equation (16):A = ε × c × l(16) where the A parameter represented absorbance of a compound’s solution, the ε descriptor was a molar absorption coefficient (in L/mol/cm units) and l was path length (in cm units).

Data set [2] deals with M. marinum CAMP 5644 (MM). Description: in vitro antimycobacterial MIC, broth dilution micromethod in Middlebrook 7H9. Type of data set: cell-based, Mycobacterium marinum. For orientation: In broth dilution the organism is exposed to a series of concentrations in liquid medium.
In data set [3] the test system is M. kansasii CNCTC My 235/80 (identical with ATCC 12478; MK 235/80). Kind of data set: in vitro antimycobacterial MIC, dilution micromethod in Šula's semisynthetic medium. The conditions noted are these: Mycobacterium kansasii. It is filed as cell-based, Mycobacterium kansasii.
In data set [4] the test system is M. kansasii DSM 44162 (MK DSM). Kind of data set: in vitro antimycobacterial MIC, broth dilution micromethod in Middlebrook 7H9. Type of data set: cell-based. The conditions noted are these: Mycobacterium kansasii, DSM 44162 / DSM 7, 168 h.
Data set [5] concerns M. tuberculosis H37Ra ATCC 25177 (MTa H37Ra). Kind of data set: in vitro antimycobacterial MIC, 96-well Middlebrook broth, alamarBlue. It is filed as cell-based, Mycobacterium tuberculosis. The conditions noted are these: Mycobacterium tuberculosis, 168 h, 7-day cultivation; read-out: MIC MTa H37Ra 7-d. How it is done:
In vitro susceptibitity of given mycobacteria to reference drugs isoniazid (INH), ethambutol (EMB), ofloxacin (OFLX) or ciprofloxacin (CPX) was tested as well (Table 6 and Table 7).
A value of a minimum inhibitory concentration (MIC) was the lowest concentration of a tested compound, (i) which inhibited growth of MTv H37Rv, MK 235/80, MK 6509/96 and MA 330/80, respectively; (ii) at which no visible growth of MTa H37Ra, MS, MK DSM as well as MM was observed.
The molecules 1a–p were also in vitro screened against an avirulent M. tuberculosis H37Ra ATCC 25177 (MTa H37Ra), M. kansasii DSM 44162 (MK DSM), M. smegmatis ATCC 700084 (MS) and M. marinum CAMP 5644 (MM), respectively, in the Department of Infectious Diseases and Microbiology (Faculty of Veterinary Medicine, University of Veterinary and Pharmaceutical Sciences in Brno, Czech Republic).
Determination of a minimum inhibitory concentration (MIC) against MTa H37Ra. The mycobacterium was grown on Middlebrook broth (MB; MiddleBrook Pharmaceuticals, Inc., Westlake, TX, USA), supplemented with Oleic-Albumin-Dextrose-Catalase (OADC) supplement (Difco, Lawrence, KS, USA) and salicylate-derived mycobactin J (2 μg/mL; Allied Monitor Inc., Fayette, MO, USA), an iron-binding siderophore.
At log phase growth, a culture sample (10 mL) was centrifuged at 15,000 rpm/20 min using a bench top centrifuge MPW-65R (MPW Med Instruments, Warsaw, Poland). Following removal of the supernatant, a pellet was washed in fresh liquid Middlebrook 7H9GC broth (MiddleBrook Pharmaceuticals, Inc.) and re-suspended in a fresh OADC-supplemented MB (10 mL).
Turbidity was adjusted to match the McFarland standard No. 1 [87] containing approximately 3 × 10^8 Colony Forming Units (CFU) with MB broth. Further 1:20 dilution of the culture was performed in MB broth.
Susceptibility of MTa H37Ra was investigated in a 96-well plate format. In the experiments, sterile deionized water (300 µL) was added to all outer-perimeter wells of the plates to minimize evaporation of the medium in test wells during incubation. Each evaluated compound (100 µL) was incubated with MTa H37Ra (100 µL). Dilutions of each compound were prepared in triplicate and final concentrations varied from 1000 μg/mL to 8 μg/mL. All tested molecules were dissolved in DMSO (Sigma-Aldrich, Irvine, UK), and subsequent dilutions were made in supplemented MB broth. The plates were sealed with parafilm and incubated at 37 °C for 7 days.
Following incubation, 10% addition a water-soluble dye, the alamarBlue reagent (AbD Serotec, Kidlington, UK) was mixed into each well. This resaurin-based reagent served as an oxidation-reduction indicator of metabolic function and cellular health in cell viability bioassays.
Absorbance readings at 570 nm and 600 nm were taken, initially for background subtraction and after 24h re-incubation. The subtraction is necessary for strongly colored compounds, where the color may interfere with the interpretation of any color change. For non-interfering compounds, a blue color in a well was interpreted as absence of growth and pink color was scored as growth.
The minimum inhibitory concentration (MIC) was defined as the lowest concentration of a compound, at which no visible bacterial growth was observed. In other words, the MIC was the lowest concentration that prevented visual color change from blue to pink.
For orientation: The colour change of resazurin is a common sign of viable cells or microbes.

Where [6] appears, read: Mycobacterium marinum, 504 h, read-out: MIC MM 21-d, 21-day cultivation, 28 °C.
Where [7] appears, read: ATCC12478, 168 h, read-out: MIC MK 235/80 7-d.
[8] abbreviates: ATCC12478, 336 h, read-out: MIC MK 235/80 14-d.
[9] abbreviates: ATCC12478, 504 h, read-out: MIC MK 235/80 21-d.
The mark [10] stands for this setting: ATCC12478, read-out: MIC MK 235/80.
Setting [11] is: read-out: MIC MK DSM 7-d, 7-day cultivation, 37 °C.
The mark [12] stands for this setting: Mycobacterium marinum, 504 h, 21-day cultivation, 28 °C, read-out: MIC MM 21-d.
Setting [13] is: ATCC12478, 168 h, 7-day cultivation, read-out: MIC MK 235/80 7-d.
Where [14] appears, read: ATCC12478, 336 h, 14-day cultivation, read-out: MIC MK 235/80 14-d.
[15] abbreviates: ATCC12478, 504 h, 21-day cultivation, read-out: MIC MK 235/80 21-d.
Setting [16] is: 7-day cultivation, 37 °C, read-out: MIC MK DSM 7-d.

Turning to `CCCCCCCOc1cccc(NC(=O)OC(CN(CCC)CCC)CN2CCCC2)c1.Cl.Cl` (stereo not drawn) [1h, 1-[2-[({[3-(heptyloxy)phenyl]amino}carbonyl)oxy]-3-(dipropylammonio)propyl]pyrrolidinium dichloride], in data set [1], the “log ε2 (Ch-T)” value is recorded as 4.27. Besides, the “log ε1” value in data set [1] was found to be 4.66. For the same compound, the “log ε3” value in data set [1] was 3.63. Besides, the MIC was <3.7 µM in data set [2] (21-day cultivation, 28 °C, read-out: MIC MM 21-d); < 3.7 µM in data set [2] (setting [6]); 8 µM in data set [3] (setting [7]); 8 µM in data set [3] (setting [8]); 8 µM in data set [3] (setting [9]); 8 µM in data set [3] (setting [10]). For the same compound, the MIC was 1.9 µM in data set [4] (setting [11]) and < 3.7 µM in data set [5].

As for `CCCCCOc1cccc(NC(=O)OC(CN(CCC)CCC)CN2CCCCCC2)c1.Cl.Cl` (stereo not drawn) [1n, 1-[2-[({[3-(pentyloxy)phenyl]amino}carbonyl)oxy]-3-(di-propylammonio)propyl]azepanium dichloride], the “log ε2 (Ch-T)” value in data set [1] amounted to 4.18. In addition, in data set [1], the “log ε1” value is 4.56. Besides, the “log ε3” value in data set [1] is listed as 3.52. In addition, the MIC turned out to be 15 µM in data set [2] (setting [6]); 8 µM in data set [3] (setting [7]); 8 µM in data set [3] (setting [8]); 8 µM in data set [3] (setting [9]); 8 µM in data set [3] (setting [10]); 7.5 µM in data set [4] (setting [11]). Also, the MIC in data set [5] amounted to 7.5 µM.

`CCCCOc1ccccc1NC(=O)OC(CN(CCC)CCC)CN1CCCC1` (stereo not drawn) [1a]: in data set [1], the “log ε2 (Ch-T)” value was 4.19. For the same compound, the “log ε1” value in data set [1] is on record as 4.51. Also, the “log ε3” value in data set [1] amounted to 3.63. The MIC was determined as 106 µM (≈ 44.5 µg/mL) in data set [2] (setting [12]); 62.5 µM (≈ 26.2 µg/mL) in data set [3] (setting [13]); 62.5 µM (≈ 26.2 µg/mL) in data set [3] (setting [14]); 62.5 µM (≈ 26.2 µg/mL) in data set [3] (setting [15]); 53 µM (≈ 22.2 µg/mL) in data set [4] (setting [16]); 213 µM (≈ 89.4 µg/mL) in data set [5].

With `CCCCCCOc1ccccc1NC(=O)OC(CN(CCC)CCC)CN1CCCCCC1` (stereo not drawn) [1k], the “log ε2 (Ch-T)” value in data set [1] was 4.10. For the same compound, the “log ε1” value in data set [1] is on record as 4.42. Besides, the “log ε3” value in data set [1] came out at 3.57. Moreover, the MIC amounted to 98 µM (≈ 46.6 µg/mL) in data set [2] (setting [12]); 16 µM (≈ 7.61 µg/mL) in data set [3] (setting [13]); 32 µM (≈ 15.2 µg/mL) in data set [3] (setting [14]); 62.5 µM (≈ 29.7 µg/mL) in data set [3] (setting [15]); 98 µM (≈ 46.6 µg/mL) in data set [4] (setting [16]); 195 µM (≈ 92.8 µg/mL) in data set [5].

Regarding `CCCCCOc1cccc(NC(=O)OC(CN(CCC)CCC)CN2CCCC2)c1.Cl.Cl` (stereo not drawn) [1f, 1-[2-[({[3-(pentyloxy)phenyl]amino}carbonyl)oxy]-3-(dipropylammonio)propyl]-pyrrolidinium dichloride], in data set [1], the “log ε2 (Ch-T)” value was determined as 4.27. The “log ε1” value in data set [1] is reported as 4.55. The “log ε3” value in data set [1] turned out to be 3.62. Also, the MIC was < 3.9 µM in data set [2] (setting [6]); 16 µM in data set [3] (setting [7]); 16 µM in data set [3] (setting [8]); 32 µM in data set [3] (setting [9]); 7.9 µM in data set [4] (setting [11]); < 3.9 µM in data set [5].

`CCCCCOc1ccccc1NC(=O)OC(CN(CCC)CCC)CN1CCCCCC1.O=C(O)C(=O)O` (stereo not drawn) [1j, 1-[2-[({[2-(Pentyloxy)phenyl]amino}carbonyl)oxy]-3-(dipropylammonio)propyl]-azepanium oxalate]: the “log ε2 (Ch-T)” value in data set [1] is on record as 4.22. In addition, the “log ε1” value in data set [1] came to 4.54. Moreover, the “log ε3” value in data set [1] was found to be 3.71. Besides, the MIC was 50 µM in data set [2] (setting [6]); 16 µM in data set [3] (setting [7]); 32 µM in data set [3] (setting [8]); 62.5 µM in data set [3] (setting [9]); 50 µM in data set [4] (setting [11]); 199 µM in data set [5].

For the compound `CCCCCCOc1cccc(NC(=O)OC(CN(CCC)CCC)CN2CCCCCC2)c1.Cl.Cl` (stereo not drawn) [1o, 1-[2-[({[3-(hexyloxy)phenyl]amino}-carbonyl)oxy]-3-(dipropylammonio)propyl]azepanium dichloride], the “log ε2 (Ch-T)” value in data set [1] is reported as 4.01. Moreover, the “log ε1” value in data set [1] was found to be 4.52. In addition, the “log ε3” value in data set [1] was 3.37. In addition, the MIC in data set [2] (setting [6]) came out at 7.3 µM; in data set [3] (setting [7]), 8 µM; in data set [3] (setting [8]), 16 µM; in data set [3] (setting [9]) it was 16 µM; in data set [4] (setting [11]), 3.6 µM; in data set [5], 7.3 µM.

Regarding `CCCCOc1cccc(NC(=O)OC(CN(CCC)CCC)CN2CCCCCC2)c1` (stereo not drawn) [1m], the “log ε2 (Ch-T)” value in data set [1] amounted to 4.09. Further, the “log ε1” value in data set [1] was determined as 4.52. Also, in data set [1], the “log ε3” value is 3.44. In addition, the MIC in data set [2] (setting [6]) is 15.4 µM (≈ 6.89 µg/mL); in data set [3] (setting [13]), 16 µM (≈ 7.16 µg/mL); in data set [3] (setting [14]) it was 16 µM (≈ 7.16 µg/mL); in data set [3] (setting [15]), 32 µM (≈ 14.3 µg/mL); in data set [4] (setting [16]) it was 7.7 µM (≈ 3.45 µg/mL); in data set [5] it was 15.4 µM (≈ 6.89 µg/mL).
